Test: Particle size and specific surface area analysis (Malvern Mastersizer 3000, laser diffraction)
Type: physicochemical
Details: for D10 / D50 / D90: particle size of desidustat used in the composition
Description: (i) Particle Size and Specific Surface Area Analysis Method:
Particle size was determined by Malvern Mastersizer 3000 with Hydro MV accessory, laser diffraction particle size analyser. About 100 mg of drug substance weighed and transferred into 100 mL of glass beaker. About 10-15 drops of dispersant sunflower oil:cyclohexane (80:20) were added and the lumps were broken with glass rod for about 3 to 5 min. 20 mL of dispersant was added into the same glass beaker and the content were shaken for 3-5 minutes with glass rod to mix well. Background measurement using dispersant was performed. When the blank correction/background measurement was over, sample slurry (with continuous manual shaking) was added in the sampler at 1500 rpm to get the target obscuration value between 10% and 30% and remained constant. Then the histogram was recorded.

[1] = Example 1, after further multi-milling using 0.2 mm sieve

Structure (SMILES)	D10	D50	D90	Particle size distribution D10 [1]	Particle size distribution D50 [1]	Particle size distribution D90 [1]	Specific surface area [1]	Particle size D90 (Example 1, after multi-milling using 5 mm sieve and drying, before 0.2 mm sieve)
O=C(O)CNC(=O)c1c(O)c2ccccc2n(OCC2CC2)c1=O [Milled desidustat]	0.80 μm	22.7 μm	130.0 μm					
O=C(O)CNC(=O)c1c(O)c2ccccc2n(OCC2CC2)c1=O [Unmilled desidustat]	2.16 μm	98.3 μm	366 μm					
O=C(O)CNC(=O)c1c(O)c2ccccc2n(OCC2CC2)c1=O [desidustat, 2-(1-(Cyclopropylmethoxy)-4-hydroxy-2-oxo-1,2-dihydroquinoline-3-carboxamido) acetic acid]				0.80 μm	22.7 μm	130 μm	2 m^2/g	366 μm

— US20240408022A1, “DESIDUSTAT PARTICLES AND COMPOSITIONS THEREOF” (ZYDUS LIFESCIENCES LIMITED, priority 2021, published 2024)
